Test results: ChEMBL document CHEMBL5120899, “Sesquiterpene Lactones from Vernonia tufnelliae: Structural Characterization and Biological Evaluation” (J Nat Prod, 2022)

Test system: HeLa S3
Assay: Cytotoxicity against human HeLa S3 cells assessed as cell viability incubated for 48 hrs by microscopic analysis
Assay type: functional, cell-based
Settings: HeLa S3, 48 h

SMILES	IC50
Oc1ccc(Cc2ccc(O)cc2)cc1	> 10 µM
Oc1ccc(Cc2ccccc2O)cc1	> 10 µM
C=C(CO)C(=O)O[C@H]1C/C(C)=C/CC/C(CO)=C/[C@H]2OC(=O)C(=C)[C@H]12	> 10 µM
COc1cc2oc(-c3ccc(O)c(O)c3)cc(=O)c2c(O)c1O	> 10 µM
C=C(CO)C(=O)O[C@H]1C/C(C)=C/CC/C(CO)=C/[C@H]2OC(=O)[C@@H](CN[C@H](Cc3ccccc3)C(=O)O)[C@H]12	> 10 µM
C=C[C@@]1(C)C[C@@H](OC(=O)C(=C)CO)[C@H](C(=C)C(=O)OC/C2=C\[C@H]3OC(=O)C(=C)[C@@H]3[C@@H](OC(=O)C(=C)CO)C/C(C)=C/CC2)[C@@H](O)[C@@H]1C(=C)CO	> 10 µM
C=C(CO)C(=O)O[C@H]1C/C(C)=C/CC/C(CO)=C/[C@H]2OC(=O)[C@@H](CN[C@@H](C(=O)O)C(C)C)[C@H]12	> 10 µM
C=C(CO)C(=O)O[C@H]1C/C(C)=C/CC/C(CO)=C/[C@H]2OC(=O)[C@@H](CN3C[C@@H](CO)[C@]4(O)O[C@H]5C/C(C)=C/CC/C(CO)=C/[C@H]6OC(=O)[C@]4(C3)[C@H]56)[C@H]12	> 10 µM
C=C(CO)C(=O)O[C@H]1C/C(C)=C/CC/C(CO)=C/[C@H]2OC(=O)[C@@H](CN[C@H](CC(C)C)C(=O)O)[C@H]12	> 10 µM
O=Cc1c[nH]c2ccccc12 [3-FORMYLINDOLE]	> 10 µM
O=c1cc(-c2ccc(O)cc2)oc2cc(O)cc(O)c12 [APIGENIN]	> 10 µM
O=c1cc(-c2ccc(O)cc2)oc2cc(O[C@@H]3O[C@H](CO)[C@@H](O)[C@H](O)[C@H]3O)cc(O)c12 [APIGETRIN]	> 10 µM
O=c1cc(-c2ccc(O)c(O)c2)oc2cc(O[C@@H]3O[C@H](CO)[C@@H](O)[C@H](O)[C@H]3O)cc(O)c12 [GALUTEOLIN]	> 10 µM
